Assay results published in patent publication EP0388950A2, “New 1,3-dioxolan-4-yl derivatives of 2-picolylamine” (J. URIACH & CIA. S.A., priority 1989, dated 1990).

Legend:
[1] = test system: platelet aggregation induced by PAF; test: Inhibition of platelet aggregation induced by PAF (rabbit platelet rich plasma, Born nephelometric technique); format: cell-based, New Zealand albino rabbits; conditions: Oryctolagus cuniculus, concentration needed to inhibit platelet aggregation by 50%, PAF (C₁₈) 16 nM final, read-out: IC₅₀
Protocol: Inhibition of platelet aggregation induced by PAF.
The blood is obtained by cardiac puncture of male New Zealand albino rabbits (between 2 and 2.5 Kg of weight) and coagulation is prevented by adding 1 part of 3.16% sodium citrate dihydrate in 9 parts of blood. The platelet rich plasma (PRP) is prepared by blood centrifugation at 250xg for 10 min. at 4°C and it is diluted with platelet poor plasma (PPP) by additional centrifugation at 3000xg for 10 min. The amount of platelets is adjusted to […]. The platelet aggregation induced by PAF (C₁₈; prepared in our laboratory) (16 nM, final) is determined by the Born nephelometric technique (J. Physiol., 1962, 162, 67) using a aggregometer Chrono-log 500. The activities of the inhibitors are expressed as IC₅₀, that is to say the concentration of the drug needed to inhibit the platelet aggregation by 50%.

[2] = test system: hypotension induced by PAF; test: Inhibition of the hypotensive effect induced by PAF in normotense rats; format: in vivo, Sprage Dawley rats; conditions: anesthetized male rats; compound given through the femoral vein 3 min before PAF (0.5 mcg/Kg, i.v.); average arterial pressure
Protocol: Inhibition of the hypotensive effect induced by PAF in normotense rats.
Male Sprage Dawley rats, of 180-220 g of weight, anesthetized with sodium pentobarbital (50 mg/Kg, i.p. 1 mL/100 g) have been used. In order to measure the average arterial pressure, a polyethylene catheter is introduced into the carotid artery. The arterial pressure is recorded with the help of a transducer connected with a R611 Beckman polygraph. The tested compounds are administered through the femoral vein 3 min before the injection of PAF (0.5 mcg/Kg, i.v.).

SMILES | IC50 [1] [nM] | CI₅₀ [2]
CCCCCCCCCCCCCCCCCC1OCC(COC(=O)N(Cc2cccc[n+]2C)C(C)=O)O1.[I-] (stereo not drawn) [Compound 3, 2-(N-Acetyl-N-(((2-heptadecyl-1,3-dioxolane-4-yl)methoxy)carbonyl)aminomethyl)-1-methylpyridinium iodide] | 2200 | 0.9 mg/Kg,i.v.
CCCCCCCCCCCCCCCNC(=O)OCC1OCC(COC(=O)N(Cc2cccc[n+]2CC)C(C)=O)O1.[I-] (stereo not drawn) [Compound 14, 2(N-Acetyl-N-(((2-pentadecylcarbamoyloxymethyl-1,3-dioxolan-4-yl)methoxy)carbonyl)aminomethyl)-1-ethylpyridinium iodide] | < 100 | <0.1 mg/Kg,i.v.
CCCCCCCCCCCCCCCCCCOCC1OCC(COC(=O)N(Cc2cccc[n+]2CC)C(C)=O)O1.[I-] (stereo not drawn) [Compound 11, 2(N-Acetyl-N-(((2-octadecyloxymethyl-1,3-dioxolan-4-yl)methoxy)carbonyl)aminomethyl)-1-ethylpyridinium iodide] | 160 | <0.1 mg/Kg,i.v.
CCCCCCCCCCCCCCCCCCOCC1OCC(COC(=O)N(Cc2cccc[n+]2C)C(C)=O)O1.[I-] (stereo not drawn) [Compound 10, 2-(N-Acetyl-N-(((2-octadecyloxymethyl-1,3-dioxolan-4-yl)methoxy)carbonyl)aminomethyl)-1-methylpyridinium iodide] | 1200 | 0.35 mg/Kg,i.v.
CCCCCCCCCCCCCCCCOCC1OCC(COC(=O)N(Cc2cccc[n+]2CC)C(C)=O)O1.[I-] (stereo not drawn) [Compound 7, 2-(N-Acetyl-N-(((2-hexadecyloxymethyl-1,3-dioxolan-4-yl)methoxy)carbonyl)aminomethyl)-1-ethylpyridinium iodide] | < 100 | <0.1 mg/Kg,i.v.
CCCCCCCCCCCCCCCCCC1OCC(COC(=O)N(Cc2cccc[n+]2CC)C(C)=O)O1.[I-] (stereo not drawn) [Compound 4, 2-(N-acetyl-N-(((2-heptadecyl-1,3-dioxolane-4-yl)methoxy)carbonyl)aminomethyl)-1-ethylpyridinium iodide] | 210 | 0.2 mg/Kg,i.v.
